Earlier results, collected in US9861098B2, “Method for producing agrichemical-containing resin composition” (Nippon Soda Co., Ltd., priority 2008, dated 2018).
Like-named read-outs stand apart in the source and are kept apart here.

For `CCSCc1ccccc1OC(=O)NC` [ethiofencarb], the water solubility (20° C.) is given as 1800 ppm.
For `COP(=O)(NC(C)=O)SC` (stereo not drawn) [acephate], the water solubility (20° C.) is given as 790000 ppm.
For `CCN(Cc1ccc(Cl)nc1)/C(=C/[N+](=O)[O-])NC` [nitenpyram], the water solubility (20° C.) is given as 590000 ppm.
For `CNC(=O)Oc1cccc2c1OC(C)(C)O2` [bendiocarb], the water solubility (20° C.) is listed as 280 ppm.
In the case of `CN/C(=N\[N+](=O)[O-])NCc1cnc(Cl)s1` [clothianidin], the water solubility (20° C.) is listed as 327 ppm.
For `CN1COCN(Cc2cnc(Cl)s2)/C1=N\[N+](=O)[O-]` [thiamethoxam], the water solubility (20° C.) is given as 4100 ppm.
In the case of `C/C(=N\C#N)N(C)Cc1ccc(Cl)nc1` [acetamiprid], the water solubility (25° C.) is listed as 4250 ppm.
In the case of `CNC(=O)ON=C(C)SC` [methomyl], the water solubility (20° C.) is given as 58000 ppm.
In the case of `N#C/N=C1\SCCN1Cc1ccc(Cl)nc1` [thiacloprid], the water solubility (20° C.) is given as 185 ppm.
